# Assay results: PMC10691236 (Proceedings of the National Academy of Sciences of the …, 2023)
# Like-named read-outs stand apart in the source and are kept apart here.
# Assays:
# CDK2/cyclin E1 = CDK2/cyclin E1 (Homo sapiens, UniProt P24941); experiment: CDK2/cyclin E1 ATPase assay (ADP-Glo; phosphorylation of histone H1)
# Procedure: Following a 30-min preincubation of the enzyme and inhibitor in the reaction mixture at room temperature, reactions were initiated with the addition of ATP and histone H1. Kinase reactions were carried out at room temperature for 30 min before reactions were quenched with the addition of one volume of ADP-Glo™ reagent (Promega). Following a 60-min incubation at room temperature to remove excess ATP, two volumes of Kinase Detection Reagent (Promega) were added to the sample. The luminescence signal was allowed to develop for 30 min before being measured on a Spark multimode plate reader (Tecan). […] IC50 values were calculated from the dose–response curves using Prism 9 (four-parameter, variable slope).
# [1] = target: T1, luciferase-CDK2/cyclin E1 in HEK293 cells (Homo sapiens, UniProt P24941); experiment: cell-based; details: for inhibition at 50 µM: nanoBRET, read-out: inhibition at the highest concentration tested (IC50 ND); for IC50: average ± SD, n = 6, read-out: IC50, inhibition of luciferase-CDK2/cyclin E1 nanoBRET signal
# T1 construct: NV2641 (CCNE1); host or cells: HEK293 (ATCC CRL-1573)
# Procedure: HEK293 cells were cultured in Roswell Park Memorial Institute (RPMI) (Invitrogen) with 10% fetal bovine serum (FBS; Invitrogen). For transfection, HEK293 cells were trypsinized and resuspended in Opti-MEM I Reduced Serum, no phenol red medium (Invitrogen) with 1% FBS at a concentration of 2 × 10^5 cells/mL. Five hundred microliters of a 10 μg/mL solution of DNA was prepared by adding 1 μg/mL of CDK2-NanoLuc Fusion Vector (Promega; NV2781) to 9 μg/mL of CCNE1 Expression Vector (Promega; NV2641) in Opti-MEM I Reduced Serum, no phenol red media. Thirty microliters of FuGENE HD Transfection Reagent (Promega) was added to each milliliter of DNA mixture. The lipid-DNA mixture was incubated at room temperature for 20 min.
# Posttransfection, the media were replaced with fresh Opti-MEM I Reduced Serum, no phenol red medium. NanoBRET Tracer reagent K-10 […] was added at a concentration of […] (1% DMSO final) along with 0.2% DMSO (± inhibitor). […] Following incubation, plates were removed from the incubator and allowed to equilibrate to room temperature for 15 min. A 3× Complete Substrate Plus Inhibitor Solution was made by adding 30 μL of NanoBRET Nano-Glo Substrate (Promega), 10 μL of Extracellular NanoLuc Inhibitor (Promega), and 4,960 μL of Opti-MEM reduced serum medium, no phenol red (Invitrogen). […] IC50 values were calculated from the dose–response curves using Prism 9 (four-parameter, variable slope). Experiments were performed in triplicate with technical duplicates in each run.
# [2] = set-up: method as in PMID 27537356; details: isolated from A. fumigatus and P. roseopurpurin; ref [30], [31]; cited from earlier work
# [3] = from CDK2/cyclin E1 IC50 values (Fig. 3B)
# [4] = read-out: IC50, inhibition of CDK2/cyclin E1-dependent phosphorylation of Histone H1, commercially available depsides and depsidones, n=2
compound,measurement,setting,value
"CO[C@@]1(C)[C@H](O)C(O)=C(C)C(=O)[C@@H]1Oc1cc(C)cc(O)c1C [compound 11, aculeatusquinone C]",IC50,CDK2/cyclin E1,42 ± 2 µM
same,fold reduction in activity/potency relative to 1,CDK2/cyclin E1; [3],approximately 900 fold
same,inhibition at 50 µM,[1],≤ 50%
"C/C=C(\C)c1cc(O)c(C)c2c1Oc1cc(O)cc(C)c1C(=O)O2 [unguinol, Unguinol, reference compound]",IC50,CDK2/cyclin E1; [4],14 µM
"Cc1cc(O)c(C)c2c1C(=O)Oc1c(C)c(O)c(C(=O)O)c(C)c1O2 [compound 7, hypoprotocetraric acid]","improvement of potency by addition of the 4-OH, relative to 8",CDK2/cyclin E1; [3],approximately ninefold
"Cc1cc(O)c(C)c(O)c1C(=O)Oc1cc(C)c(C(=O)O)c(O)c1C [compound 6, 4-o-demethyl barbatic acid]",inhibition at 100 µM,CDK2/cyclin E1; read-out: inhibition at the highest concentration tested (IC50 ND),≤ 50%
same,inhibition at 50 µM,[1],≤ 50%
"Cc1cc(O)c(C)c2c1C(=O)Oc1c(C)c(O)c(O)c(C)c1O2 [compound 10, roseopurpurin G]",cytotoxicity,[2],generally cytotoxic
same,IC50,CDK2/cyclin E1,0.7 ± 0.1 µM
same,IC50,[1],40 ± 20 µM
"CO[C@@]1(C)[C@H](O)C(=O)C(C)=C2OC(=O)c3c(C)cc(O)c(C)c3O[C@@H]21 [compound 1, roseopurpurin C]",cytotoxicity,[2],generally cytotoxic
"C/C=C(/C)c1cc(O)c(C)c2c1Oc1c(C)c(O)cc(/C(C)=C\C)c1C(=O)O2 [folipastatin, reference compound]",IC50,CDK2/cyclin E1; [4],24 µM
"Cc1cc(O)c(C=O)c2c1C(=O)Oc1c(COC(=O)/C=C/C(=O)O)c(O)c(C(=O)O)c(C)c1O2 [Fumarprotocetriaric acid, fumarprotocetraric acid, reference compound]",effect on luminescence values in CDK2/cyclin E1 ADP-detection assay,"CDK2/cyclin E1; commercial compound screen, n=2",increased luminescence values
"Cc1cc(O)c(C)c2c1Oc1c(C)c(O)cc(C)c1C(=O)O2 [compound 8, 3,8-dihydroxy-1,4,6,9-tetramethyl-dibenzo[b,e][1,4]dioxepin-11-one]",IC50,CDK2/cyclin E1,6.1 ± 0.5 µM
same,IC50,[1],27 ± 7 µM
